In brackets after ≈: the same amount, converted by molar mass.
Assays:
[1] = Solubility of DEX in vegetable oils with cosolvents (shaker, HPLC); assay type: physicochemical; conditions: oil or lipid, thermodynamic from solid, 24 hours incubation
Method: After centrifugation, 200 μL of supernatant was diluted with 600 μL of tetrahydrofuran and 800 μL of acetonitrile in vials for the HPLC analysis. All samples were prepared in triplicates. Castor oil combined with 20 % (v/v) of isopropanol and castor oil with 20 % (v/v) of Capryol® 90 were chosen as the best formulations for the following experiments.
Samples from the solubility and partitioning studies were analysed on HPLC system Agilent 1100/1200 series connected to diode array detector adjusted to 241 nm. Kinetex C18 column (4.6 x 50 mm, particles 2.6 μm and pore size 100 Å) by Phenomenex (USA), heated to 40 °C, was used. The chromatograms were obtained with a gradient elution, where acetonitrile and buffer pH 2.0 were components of the mobile phase. Injector temperature was adjusted at 35 °C, the flow rate at 1.8 ml/min and sample injection volume at 10 μL. […] The two working standard solutions were obtained by further diluting the stock solution. […] The second standard solution was prepared by diluting 1 mL of stock solution in 100 mL acetonitrile. It was used for DEX assay in solutions composed of four other oils.

[2] = cited from earlier work
[3] = phosphate buffer pH 7.4 with 10 % (v/v) ethanol; cited from earlier work

Q: Which results are given for `C[C@@H]1C[C@H]2[C@@H]3CCC4=CC(=O)C=C[C@]4(C)[C@@]3(F)[C@@H](O)C[C@]2(C)[C@@]1(O)C(=O)CO` [DEX, Dexamethasone]?
A: solubility at 24 h ([1]; castor oil with 20 % (v/v) Capryol 90, 37 °C): ~1200 µg/mL (≈ 3.06 mM); solubility at 24 h ([1]; castor oil with 20 % (v/v) isopropanol, 37 °C): ~2300 µg/mL (≈ 5.86 mM); solubility in ethanol [2]: sparingly soluble; solubility in water [2]: practically insoluble; solubility of DEX [3]: 170 µg/mL

Source: article PMC9793461 (ADMET & DMPK, 2022)
